Reference: US9314522B2, “Antitumors combinations containing antibodies recognizing specifically CD38 and bortezomib” (Sanofi, priority 2010, dated 2016)
Like-named read-outs stand apart in the source and are kept apart here.

Legend:
[1] = Body weight loss as index of test agent toxicity in NCI-H929 tumor-bearing mice; type: in vivo, SCID mice; conditions: days 34, 37
Text: The animals subjected to the experiment, generally mice, are subcutaneously grafted unilaterally or bilaterally with tumor cells or fragment on day 0. The animals bearing tumors are randomized based on their tumor size before being subjected to the various treatments and controls. Chemotherapy begins when tumors have reached a predetermined size after grafting, depending on the type of tumor, and the animals are observed every day. The different animal groups are weighed daily during treatment until the maximum weight loss is reached and subsequent full weight recovery has occurred. The groups are then weighed once or twice a week until the end of the trial.
Body weights were measured twice per week as a rough index of test agent toxicity. Tumor volume and body weight were determined and recorded by Labcat software.
Toxicity was declared at dosages inducing 20% body weight loss or 10% drug death, […]

[2] = tested on: NCI-H929 tumor xenografts; conditions: days 34, 37
Text: A product is considered to be active if log10 cell kill is greater than or equal to 0.7. A product is considered to be very active if log10 cell kill is greater than or equal to 2.8.
The combination will manifest therapeutic synergy when the log10 cell kill is greater than the value of the log10 cell kill of the best constituent administered alone at its maximum tolerated dose or at its highest dose tested.
The animals subjected to the experiment, generally mice, are subcutaneously grafted unilaterally or bilaterally with tumor cells or fragment on day 0. The animals bearing tumors are randomized based on their tumor size before being subjected to the various treatments and controls. Chemotherapy begins when tumors have reached a predetermined size after grafting, depending on the type of tumor, and the animals are observed every day. […] The groups are then weighed once or twice a week until the end of the trial.
The tumors are measured 1 to 5 times a week, depending on the tumor doubling time, until the tumor reaches approximately 750 mg, or until the animal dies (if this occurs before the tumor reaches 750 mg). The animals are necropsied immediately after euthanasia or death.
Hu38SB19 and Bortezomib treatments were started thirty four days after cell inoculation and doses were calculated based on individual animal body weights determined from the last measurement taken before dosing. Administration of PBS and hu38SB19 antibody was carried out through intraperitoneal (IP) injection and bortezomib by intravenous (IV) injection via the tail vein, using a 1.0 mL syringe fitted with a 27 gauge, ½ inch needle.
Thirty-three days after tumor cell inoculation, sixty-four mice were randomized into 8 groups (n=8) by tumor volume. […] Mice in each group were identified by a puncture in the ear.
Treatment groups included PBS control (200 μL/mouse/treatment), hu38SB19 antibody (5.0 mg/kg/treatment), bortezomib (1.0, 0.6 and 0.4 mg/kg/treatment) and three combination groups with hu38SB19 (5.0 mg/kg/treatment) and bortezomib (1.0, 0.6 and 0.4 mg/kg/treatment). PBS, hu38SB19 and bortezomib were administered twice per week for one week (days 34 and 37 for a total of 2 treatments). Treatments were started on day 34 post inoculation of tumor cells.
Tumor volumes were measured one to two times weekly in three dimensions using a caliper. The tumor volume was expressed in mm^3 (or mg) using the formula: V=Length×Width×Height×½.
Tumor Free Survivors (TFS): correspond to complete regression below the limit of palpation (63 mg) for the entire duration of the study (>100 days post last treatment).

[3] = Bortezomib IV 0.4 mg/kg/injection (total 0.8)
[4] = Bortezomib IV 0.4 mg/kg/injection (total 0.8), 0.4 mg/kg
[5] = Bortezomib IV 0.4 mg/kg/injection (total 0.8), listed as bortezomib, 0.4 mg/kg
[6] = Bortezomib IV 0.6 mg/kg/injection (total 1.2)
[7] = Bortezomib IV 0.6 mg/kg/injection (total 1.2), 0.6 mg/kg
[8] = Bortezomib IV 0.6 mg/kg/injection (total 1.2), listed as bortezomib, 0.6 mg/kg
[9] = Bortezomib IV 1.0 mg/kg/injection (total 2.0)
[10] = Bortezomib IV 1.0 mg/kg/injection (total 2.0), 1 mg/kg
[11] = Bortezomib IV 1.0 mg/kg/injection (total 2.0), listed as bortezomib, 1 mg/kg

CC(C)C[C@H](NC(=O)[C@H](Cc1ccccc1)NC(=O)c1cnccn1)B(O)O [Bortezomib, [(1R)-3-methyl-1-({(2S)-3-phenyl-2-[(pyrazin-2-ylcarbonyl)amino]propanoyl}amino)butyl]boronic acid]
Average body weight loss in % per mouse at nadir (day of nadir) ([1]; Bortezomib IV 0.4 mg/kg/injection (total 0.8), nadir d36): 0.8 (d36) %
Average body weight loss in % per mouse at nadir (day of nadir) ([1]; Bortezomib IV 0.6 mg/kg/injection (total 1.2), nadir d40): 0.6 (d40) %
Average body weight loss in % per mouse at nadir (day of nadir) ([1]; Bortezomib IV 1.0 mg/kg/injection (total 2.0), nadir d36): 7.0 (d36) %
T-C in days (tumor growth delay) [2, 3]: 7 days
Time for median tumor to reach 750 mg [2, 3]: 69 days
log cell kill [2, 3]: 0.1
% T/C [2, 4]: 74%
Comments (anti-tumor activity rating) [2, 4]: Inactive
TFS at day 176 (tumor free survivors) [2, 4]: 1/8
% T/C [2, 5]: 45%
Comments (anti-tumor activity rating) [2, 5]: inactive
TFS at day 176 (tumor free survivors) [2, 5]: single TFS
T-C in days (tumor growth delay) [2, 6]: 18 days
Time for median tumor to reach 750 mg [2, 6]: 80 days
log cell kill [2, 6]: 0.3
% T/C [2, 7]: 45%
Comments (anti-tumor activity rating) [2, 7]: Inactive
TFS at day 176 (tumor free survivors) [2, 7]: 0/8
% T/C [2, 8]: 75%
Comments (anti-tumor activity rating) [2, 8]: inactive
TFS at day 176 (tumor free survivors) [2, 8]: No TFS
% T/C [2, 9]: 15%
T-C in days (tumor growth delay) [2, 9]: 37 days
Time for median tumor to reach 750 mg [2, 9]: 99 days
log cell kill [2, 9]: 0.6
Comments (anti-tumor activity rating) [2, 10]: Active
TFS at day 176 (tumor free survivors) [2, 10]: 2/8
Comments (anti-tumor activity rating) [2, 11]: somewhat active
TFS at day 176 (tumor free survivors) [2, 11]: 2
